We go through 3 compounds from PMC4012441, “Nature’s Lab for Derivatization: New and Revised Structures of a Variety of Streptophenazines Produced by a Sponge-Derived Streptomyces Strain” (Marine Drugs, 2014).

Structures are written as SMILES.

T1 sequence (Q07343 whole entry): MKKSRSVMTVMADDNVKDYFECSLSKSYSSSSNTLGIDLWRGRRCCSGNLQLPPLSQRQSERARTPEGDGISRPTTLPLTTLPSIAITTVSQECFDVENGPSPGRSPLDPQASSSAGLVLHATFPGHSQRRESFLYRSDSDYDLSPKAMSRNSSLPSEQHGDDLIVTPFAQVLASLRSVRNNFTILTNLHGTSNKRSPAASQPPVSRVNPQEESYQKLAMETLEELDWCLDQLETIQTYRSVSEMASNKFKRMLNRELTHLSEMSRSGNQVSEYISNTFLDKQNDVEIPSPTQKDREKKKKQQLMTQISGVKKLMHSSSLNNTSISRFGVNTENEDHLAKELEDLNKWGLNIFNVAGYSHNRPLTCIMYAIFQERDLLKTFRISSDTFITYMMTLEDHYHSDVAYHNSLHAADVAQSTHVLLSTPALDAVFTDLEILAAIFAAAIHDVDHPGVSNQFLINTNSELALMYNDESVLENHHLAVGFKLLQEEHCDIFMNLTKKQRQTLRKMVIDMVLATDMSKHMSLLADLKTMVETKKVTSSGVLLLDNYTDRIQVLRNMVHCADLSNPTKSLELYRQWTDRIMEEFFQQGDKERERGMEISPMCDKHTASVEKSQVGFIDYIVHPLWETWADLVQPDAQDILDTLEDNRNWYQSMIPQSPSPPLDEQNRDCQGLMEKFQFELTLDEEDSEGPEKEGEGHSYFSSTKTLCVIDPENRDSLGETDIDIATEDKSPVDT

This assay has as its target T1, PDE 4B (Homo sapiens, UniProt Q07343).
T1 construct: gene PDE4B
Put plainly: PDE4B enzyme inhibition assay (according to Schulz et al.). The assay is classed as biochemical.
The term IC50 denotes the concentration at which inhibition is half-maximal. A higher IC50 goes with a need for much substance. The compound `COC(=O)c1cccc2nc3c(C(O)C(CCCC(C)C(C)O)C(=O)OC)cccc3nc12` (stereo not drawn) [compound 2, Streptophenazine J] came in with an IC50 of 12 µM.

Compound `CCC(C)CCC[C@@H](C(=O)OC)[C@H](O)c1cccc2nc3c(C(=O)O)cccc3nc12` (stereo partly drawn) [compound 3, Streptophenazine K] came in with an IC50 of 12.2 µM. The same measure for `CCC(C)CCC[C@@H](C(=O)OC)[C@H](O)c1cccc2nc3c(C(=O)OC)cccc3nc12` (stereo partly drawn) [compound 9, Streptophenazine G]: 5.2 µM.
